“And” between values parts separate entries of the source, which are not always exact repeats. Equal entries are not always repeated. “Also recorded” adds a separate entry of the source. Each block holds one molecule with its values, some of them ahead of it.
Tests used:
Assay type in all cases: cell-based
α2γ2L receptors = biological target: T1, α2γ2L receptors (Homo sapiens, UniProt P18507+P47869); assay: Two-electrode voltage clamp of binary α2γ2L receptors expressed in Xenopus oocytes
T1 construct: expressed in transfected cells; host or cells: Xenopus laevis oocytes injected with α2 and γ2L mRNAs
Text: (§1) Human complementary DNA (cDNA) of GABAAR α2 subunit (vector: pCMV6-XL5) was purchased from OriGene Technologies (Rockville, MD, USA), and the human β3 (vector: pGEMHE) and γ2L (vector: pCDM8) subunits were generous gifts from Dr. Bjarke Ebert (H. Lundbeck A/S, Valby, Denmark) and Dr. Paul Whiting (Merck, Sharp and Dohme Research Laboratories, Harlow, Essex, UK) respectively. […] Plasmid vectors with the cDNA incorporated were linearised using appropriate restriction endonucleases (α2: SmaI; β3: NheI; γ2L: NotI). Capped RNA transcripts were synthesised from linearised plasmids using the mMessage mMachine T7 transcript kit from Ambion (Austin, TX, USA). Purified messenger RNA (mRNA) was dissolved in nuclease-free water (Ambion, Austin, TX, USA), and its quality was assessed using 1% agarose gel electrophoresis. The concentration of each subunit mRNA was measured using Nanodrop ND-100 UV-Vis spectrophotometer (Thermo Fisher Scientific, North Ryde, NSW, Australia).
(§2) Various combinations of α2, β3 and γ2L subunit mRNAs were mixed to different ratios as stated in the text, and diluted accordingly to a concentration of 5 ng/μL (unless otherwise stated). […] Injected oocytes were stored in ND96 storage solution supplemented with 50 μg/mL gentamycin and tetracycline at 18°C. Two-electrode voltage clamp recordings were performed on oocytes 2–4 days post-injection at room temperature (20–25°C) using a GeneClamp 500B amplifier (ADInstruments, Sydney, NSW, Australia) or a Warner OC-725C Oocyte Clamp (Warner Instrument Corp, Hamden, CT, USA). All experiments were conducted at a holding potential of –60 mV, and data were acquired with a PowerLab 2/25, and LabChart (version 5.0.2) software (ADInstruments, Sydney, NSW, Australia). The recording microelectrodes (0.2–1.1 MΩ) were generated from capillary glass (Harvard Apparatus, Holliston, MA, USA) using a single-stage glass microelectrode puller (Narishige, Tokyo, Japan), and were filled with 3 M KCl solution. The perfusion system was built using a series of polycarbonate, high-density polyethylene two-way stopcocks (Qosina, Edgewood, NY, USA), connected through tubing to the recording chamber (100 μL), where the oocyte was continuously perfused with ND96 recording solution (96 mM NaCl, 2 mM KCl, 1 mM MgCl2, 1.8 mM CaCl2, 5 mM HEPES hemisodium; pH 7.4) at an approximate rate of 5 mL/min.
(§3) Perfusates containing these chemicals were made up fresh before each application. The concentration-response curves of agonists were obtained by exposing oocytes to increasing concentrations of agonists until the currents peaked. […] All experiments were performed using at least two different batches of oocytes.

β3γ2L GABAARs = biological target: T2, β3γ2L GABAARs (Homo sapiens, UniProt P18507+P28472); assay: Two-electrode voltage clamp of β3γ2L GABAARs expressed at various β3:γ2L mRNA ratios in Xenopus oocytes; settings: for EC50: EC50 (95% CI) of direct activation; for EC50 / E max ± SEM (300 μM 2’MeO6MF-elicited current normalised against 3 mM GABA response) / n H ± SEM (Hill slope) of direct activation: -60 mV; for 2’MeO6MF activity: 100 μM; for Enhancement of GABA current (co-application): GABA EC3–10 + 100 or 300 μM ligand, data not shown; for Expression level (current response elicited by GABA): 3 mM GABA; for Frac (95% CI), proportion of maximal response mediated by the more potent component / n H_1 (Hill slope) / n H_2 (Hill slope): biphasic fit; for n H_1 (Hill slope) / n H_2 (Hill slope): Hill slopes constrained to 1
T2 construct: expressed in transfected cells; host or cells: Xenopus laevis oocytes injected with β3 and γ2L mRNAs at 1:1 to 1:100
Text: as §1
as §2, with “All experiments were conducted at a holding potential of –60 mV, and data were acquired with a PowerLab 2/25, and LabChart (version 5.0.2) software (ADInstruments, Sydney, NSW, Australia).” left out
as §3
Prism (version 5.04; GraphPad Software, La Jolla, CA, USA) was used for data analysis.
In all cases, we constrained the bottom to 0, and when fitting data to the biphasic model, the Hill slopes were constrained to 1. Statistical comparisons of results for different injection ratios of β3γ2L receptors were performed using ANOVA with Tukey’s post-hoc test. When comparing results from different injection ratios of β3γ2L receptors with α2β3γ2L receptors, the ANOVA Dunnett’s test was used. Pairwise comparisons were performed using Student’s t test. Statistical significance was attained at p < 0.05.

homomeric α2 GABAARs = biological target: T3, homomeric α2 GABAARs (Homo sapiens, UniProt P47869); assay: Two-electrode voltage clamp of oocytes injected with α2 mRNA alone
T3 construct: expressed in transfected cells; host or cells: Xenopus laevis oocytes injected with α2 mRNA alone (28–35 ng/oocyte)
T3 sequence (P47869 29-451): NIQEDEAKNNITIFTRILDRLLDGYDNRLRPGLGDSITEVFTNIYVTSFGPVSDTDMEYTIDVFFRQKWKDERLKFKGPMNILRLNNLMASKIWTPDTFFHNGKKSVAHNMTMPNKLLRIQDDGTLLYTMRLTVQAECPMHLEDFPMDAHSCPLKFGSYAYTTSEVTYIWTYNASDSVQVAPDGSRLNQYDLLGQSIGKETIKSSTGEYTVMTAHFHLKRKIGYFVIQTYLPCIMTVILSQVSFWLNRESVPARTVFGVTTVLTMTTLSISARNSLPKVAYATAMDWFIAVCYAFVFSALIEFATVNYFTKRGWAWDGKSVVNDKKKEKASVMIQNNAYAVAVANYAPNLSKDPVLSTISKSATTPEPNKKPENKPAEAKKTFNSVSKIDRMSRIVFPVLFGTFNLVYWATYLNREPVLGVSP
Text: as §1
Various combinations of α2, β3 and γ2L subunit mRNAs were mixed to different ratios as stated in the text, and diluted accordingly to a concentration of 5 ng/μL (unless otherwise stated). […] Injected oocytes were stored in ND96 storage solution supplemented with 50 μg/mL gentamycin and tetracycline at 18°C. […]

T2 sequence (P28472 26-473): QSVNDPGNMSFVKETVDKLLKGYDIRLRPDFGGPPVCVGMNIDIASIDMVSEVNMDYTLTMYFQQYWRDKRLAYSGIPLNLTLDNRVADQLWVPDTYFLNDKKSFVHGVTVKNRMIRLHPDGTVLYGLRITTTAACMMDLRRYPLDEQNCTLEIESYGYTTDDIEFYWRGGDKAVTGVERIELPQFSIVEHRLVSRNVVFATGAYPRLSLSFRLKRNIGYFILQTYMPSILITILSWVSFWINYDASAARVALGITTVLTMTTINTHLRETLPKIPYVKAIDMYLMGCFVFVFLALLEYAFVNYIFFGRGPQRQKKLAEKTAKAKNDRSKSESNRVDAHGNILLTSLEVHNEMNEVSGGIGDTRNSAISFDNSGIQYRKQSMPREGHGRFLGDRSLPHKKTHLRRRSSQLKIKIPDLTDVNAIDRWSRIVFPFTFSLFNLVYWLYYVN
T2 sequence (P18507 40-475): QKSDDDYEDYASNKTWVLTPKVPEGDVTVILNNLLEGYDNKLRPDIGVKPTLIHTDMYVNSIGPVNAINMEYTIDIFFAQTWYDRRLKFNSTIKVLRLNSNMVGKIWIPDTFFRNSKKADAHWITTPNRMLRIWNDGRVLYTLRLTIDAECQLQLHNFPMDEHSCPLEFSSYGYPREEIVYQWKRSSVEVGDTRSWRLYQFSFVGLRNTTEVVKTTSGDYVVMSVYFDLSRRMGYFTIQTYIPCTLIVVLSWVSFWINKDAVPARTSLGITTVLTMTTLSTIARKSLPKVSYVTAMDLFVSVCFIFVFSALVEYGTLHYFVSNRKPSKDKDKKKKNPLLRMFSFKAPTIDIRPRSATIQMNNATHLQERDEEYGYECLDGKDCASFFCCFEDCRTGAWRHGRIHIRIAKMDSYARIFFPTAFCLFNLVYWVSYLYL
T1 sequence (P18507 40-475, one chain of several): as the sequence (P18507 40-475) above

SMILES: COc1ccccc1-c1cc(=O)c2cc(C)ccc2o1 [2’MeO6MF, 2’-methoxy-6-methylflavone]
- 2’MeO6MF activity (α2γ2L receptors; α2γ2L 1:1, 100 μM): no function; also recorded: No current
- EC50 (β3γ2L GABAARs; β3γ2L 1:15): 45 µM
- EC50 (β3γ2L GABAARs; β3γ2L 1:50): 62 µM
- EC50 (β3γ2L GABAARs; β3γ2L 1:100): 63 µM
- 2’MeO6MF activity (β3γ2L GABAARs; β3γ2L 1:1): inhibited the constitutive activity; also recorded: inverse agonist; also recorded: Inverse agonism
- 2’MeO6MF activity (β3γ2L GABAARs; β3γ2L 1:5): mixed agonist and inverse agonist activity; also recorded: mixed inverse agonist and agonist effect; also recorded: Inverse agonism/activation
- 2’MeO6MF activity (β3γ2L GABAARs; β3γ2L 1:10): mixed agonist and inverse agonist activity; also recorded: mixed inverse agonist and agonist effect; also recorded: Inverse agonism/activation
- 2’MeO6MF activity (β3γ2L GABAARs; β3γ2L 1:15): directly activated receptors expressed efficaciously; also recorded: Activation
- Elicited current, % of the 3 mM GABA responses (mean ± SEM) (β3γ2L GABAARs; β3γ2L 1:15, 100 μM ligand): 87 ± 4.5%
- E max ± SEM (300 μM 2’MeO6MF-elicited current normalised against 3 mM GABA response) (β3γ2L GABAARs; β3γ2L 1:15): 1.2 ± 0.10
- n H ± SEM (Hill slope) of direct activation (β3γ2L GABAARs; β3γ2L 1:15): 1.8 ± 0.42
- Enhancement of GABA current (co-application) (β3γ2L GABAARs; β3γ2L 1:15): No enhancement
- 2’MeO6MF activity (β3γ2L GABAARs; β3γ2L 1:20): variable efficacy; also recorded: Activation
- Elicited current, % of the 3 mM GABA responses (mean ± SEM) (β3γ2L GABAARs; β3γ2L 1:20, 100 μM ligand): approximately 34 ± 4.0%
- Relative efficacy, range across oocytes, % of the 3 mM GABA responses (β3γ2L GABAARs; β3γ2L 1:20, 100 μM ligand): 1.0 to 120%
- 2’MeO6MF activity (β3γ2L GABAARs; β3γ2L 1:50): activation with low efficacy
- Elicited current, % of the 3 mM GABA responses (mean ± SEM) (β3γ2L GABAARs; β3γ2L 1:50, 100 μM ligand): around 6.7 ± 1.2%
- E max ± SEM (300 μM 2’MeO6MF-elicited current normalised against 3 mM GABA response) (β3γ2L GABAARs; β3γ2L 1:50): 0.086 ± 0.018
- n H ± SEM (Hill slope) of direct activation (β3γ2L GABAARs; β3γ2L 1:50): 1.4 ± 0.88
- 2’MeO6MF activity (β3γ2L GABAARs; β3γ2L 1:100): activation with low efficacy
- Elicited current, % of the 3 mM GABA responses (mean ± SEM) (β3γ2L GABAARs; β3γ2L 1:100, 100 μM ligand): ~5.1 ± 0.72%
- E max ± SEM (300 μM 2’MeO6MF-elicited current normalised against 3 mM GABA response) (β3γ2L GABAARs; β3γ2L 1:100): 0.10 ± 0.020
- n H ± SEM (Hill slope) of direct activation (β3γ2L GABAARs; β3γ2L 1:100): 1.6 ± 0.76
- Enhancement of GABA current (co-application) (β3γ2L GABAARs; β3γ2L 1:100): No enhancement
- 2’MeO6MF activity (homomeric α2 GABAARs; 100 μM): did not detect function; also recorded: No current

- Expression level (current response elicited by GABA) (α2γ2L receptors; α2γ2L 1:1, 5 ng mRNA, 60 mM GABA, -60 mV): no function; also recorded: No current
- Expression level (current response elicited by GABA) (β3γ2L GABAARs; β3γ2L 1:1): 110 ± 34 nA
- Expression level (current response elicited by GABA) (β3γ2L GABAARs; β3γ2L 1:5): 270 ± 80 nA
- Expression level (current response elicited by GABA) (β3γ2L GABAARs; β3γ2L 1:10): 310 ± 61 nA
- I max ± SEM (current amplitude elicited by 30 mM GABA) (β3γ2L GABAARs; β3γ2L 1:15): 780 ± 220 nA
- Expression level (current response elicited by GABA) (β3γ2L GABAARs; β3γ2L 1:15): 490 ± 47 nA
- n H_1 ± SEM (Hill slope) (β3γ2L GABAARs; β3γ2L 1:15, monophasic fit): 0.54 and 0.54 ± 0.040
- Expression level (current response elicited by GABA) (β3γ2L GABAARs; β3γ2L 1:20): 860 ± 87 nA
- I max ± SEM (current amplitude elicited by 30 mM GABA) (β3γ2L GABAARs; β3γ2L 1:50): 1000 ± 250 nA
- Expression level (current response elicited by GABA) (β3γ2L GABAARs; β3γ2L 1:50): 1000 ± 160 nA
- Frac (95% CI), proportion of maximal response mediated by the more potent component (β3γ2L GABAARs; β3γ2L 1:50): 0.74 (0.67–0.80)
- n H_1 (Hill slope) (β3γ2L GABAARs; β3γ2L 1:50): 1.0
- n H_2 (Hill slope) (β3γ2L GABAARs; β3γ2L 1:50): 1.0
- I max ± SEM (current amplitude elicited by 30 mM GABA) (β3γ2L GABAARs; β3γ2L 1:100): 1000 ± 97 nA
- Expression level (current response elicited by GABA) (β3γ2L GABAARs; β3γ2L 1:100): 1100 ± 100 nA
- Frac (95% CI), proportion of maximal response mediated by the more potent component (β3γ2L GABAARs; β3γ2L 1:100): 0.71 (0.65–0.77)
- n H_1 (Hill slope) (β3γ2L GABAARs; β3γ2L 1:100): 1.0
- n H_2 (Hill slope) (β3γ2L GABAARs; β3γ2L 1:100): 1.0
SMILES: NCCCC(=O)O [GABA, γ-aminobutyric acid]
- Expression level (current response elicited by GABA) (homomeric α2 GABAARs; 28–35 ng mRNA/oocyte, 60 mM GABA, -60 mV): did not detect function; also recorded: No current

— article PMC4619705 (PLoS ONE, 2015)
